Key:
[1] = target: T1, human CD73 (Homo sapiens, UniProt P21589); experiment: Inhibitor activity against CD73 in cell based assay (CD73 expressing CHO-K1 cells); conditions: CHO-K1 cells expressing human CD73, 150 μM AMP, 4 hours of incubation; read-out: CHO-K1 CELL VARIANT: CD73 IC50
T1 construct: expressed in transfected cells
T1 sequence (P21589 27-549): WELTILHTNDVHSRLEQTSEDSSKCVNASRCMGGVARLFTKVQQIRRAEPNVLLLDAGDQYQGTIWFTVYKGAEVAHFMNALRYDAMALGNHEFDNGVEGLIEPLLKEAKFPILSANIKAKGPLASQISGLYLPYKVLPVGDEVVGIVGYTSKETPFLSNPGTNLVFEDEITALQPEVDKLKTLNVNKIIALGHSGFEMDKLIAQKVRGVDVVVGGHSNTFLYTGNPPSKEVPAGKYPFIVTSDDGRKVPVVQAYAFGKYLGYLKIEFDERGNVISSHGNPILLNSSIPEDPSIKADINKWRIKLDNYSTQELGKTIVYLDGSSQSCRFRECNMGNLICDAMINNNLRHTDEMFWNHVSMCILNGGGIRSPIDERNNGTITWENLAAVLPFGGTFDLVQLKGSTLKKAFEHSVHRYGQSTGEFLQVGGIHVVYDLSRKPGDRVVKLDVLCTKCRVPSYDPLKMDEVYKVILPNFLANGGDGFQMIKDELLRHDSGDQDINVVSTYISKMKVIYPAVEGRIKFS
Experimental: Determine Inhibitor Activity Against CD73 in Cell Based Assay
CD73 expressing CHO-K1 cell clones were generated upon stable transfection of a plasmid expressing human CD73 under the control of CMV promoter. Cells were selected in Ham's F-12K (Kaighn's) media supplemented with 10% fetal bovine serum and 1 mg/ml G418 at 37° C. in a humidified incubator supplied with 5% CO2. The assays were performed as follows. Cells were seeded in a 96 well plate in 50 μL of culture media at a density of 1×10^4 per well. Compound at a maximal concentration of 5 mM was serially diluted 1:3 in DMSO for a total of 8 point titration. A 2 μL aliquot of each dilution point was added to 248 μL culture media and 25 µL was added to each well, providing 10 μM compound at the maximum concentration point. AMP was diluted in culture media and 25 μL was added to each well with a final concentration of 150 μM. 4 wells containing 0.2% DMSO treated cells and AMP served as high controls and 4 wells containing media only with 0.2% DMSO and AMP served as low controls. After 4 hours of incubation, 20 μL of the supernatant was transferred to a 384 well plate. AMP level in supernatant was measured indirectly by adding 5 μL of CellTiter-Glo® 2.0 reagent and 5 μL of ATP with a final concentration of 1 μM. Following incubation of plate at room temperature for 30 minutes, luminescent signal was read on a Tecan plate reader. The percentage inhibition at individual concentrations relative to high and low controls was calculated. The data were analyzed by using nonlinear regression to generate IC50 values.

[2] = target: T2, Human CD73 (amino acid residues 27-549) (Homo sapiens, UniProt P21589); experiment: CD73 enzymatic assay (luciferase-based indirect assay, CellTiter-Glo); assay type: biochemical; conditions: 0.4 nM CD73, 150 μM AMP, 1 hour at room temperature
T2 construct: Human CD73 (amino acid residues 27-549); His tag (N); made in house; host or cells: E. coli
T2 sequence (P21589 27-549): T1 sequence (P21589 27-549)
Experimental: CD73 enzymatic activity was measured in a luciferase-based indirect assay using CellTiter-Glo® system from Promega. The luciferase reaction in the presence of ATP is inhibited by AMP, a primary substrate of CD73. Addition of CD73 enzyme to the reaction converts AMP to adenosine, and release the inhibition, producing a luminescent signal. Inhibition of CD73 leads to the decrease of this luminescent signal.
Human CD73 (amino acid residues 27-549) with N-Terminal His tag was purified in E. coli. All the assay components were prepared in 50 mM HEPEs buffer (pH 7.4) with 0.01% Tween® 20. The CD73 enzymatic assay was performed using 0.4 nM CD73 and 150 μM AMP. 9.5 μL of CD73 protein and 9.5 μL of AMP were added to the wells of a 384 well plate containing 1 μL of various concentrations of test compound or DMSO vehicle and incubated for 1 hour at room temperature. 16 wells containing CD73, AMP and 5% DMSO served as high control. 16 wells containing AMP and 5% DMSO served as low control. Enzymatic reaction was stopped and AMP level was measured indirectly by adding 5 μL of CellTiter-Glo® 2.0 reagent and 5 μL of ATP with a final concentration of 1 μM. Following incubation of the plate at room temperature for 30 minutes, luminescent signal was read on a Tecan plate reader. The percentage inhibition at individual concentrations relative to high and low controls was calculated. The data were analyzed by using nonlinear regression to generate IC50 values.

Compound	IC50 [1] [µM]	IC50 [2] [µM]
O=C(N[C@@H]1CCN(c2cn[nH]c(=O)c2Cl)C1)OC1CCCCC1 [P-0015, cyclohexyl (R)-(1-(5-chloro-6-oxo-1,6-dihydropyridazin-4-yl)pyrrolidin-3-yl)carbamate]	10 to 100	0.001 to 10
O=C(NC1CCCC1)O[C@@H]1CCN(c2cn[nH]c(=O)c2Cl)C1 [P-0017, (R)-1-(5-chloro-6-oxo-1,6-dihydropyridazin-4-yl)pyrrolidin-3-yl cyclopentylcarbamate]	0.001 to 10	0.001 to 10
O=C(NC1CCCCC1)O[C@@H]1CCN(c2cn[nH]c(=O)c2Cl)C1 [P-0018, (R)-1-(5-chloro-6-oxo-1,6-dihydropyridazin-4-yl)pyrrolidin-3-yl cyclohexylcarbamate]	0.001 to 10	0.001 to 10
O=C(NC1CCCC1)O[C@H]1CCN(c2cn[nH]c(=O)c2Cl)C1 [P-0020, (S)-1-(5-chloro-6-oxo-1,6-dihydropyridazin-4-yl)pyrrolidin-3-yl cyclopentylcarbamate]	10 to 100	0.001 to 10
O=C(NC1CCCCC1)O[C@H]1CCN(c2cn[nH]c(=O)c2Cl)C1 [P-0021, (S)-1-(5-chloro-6-oxo-1,6-dihydropyridazin-4-yl)pyrrolidin-3-yl cyclohexylcarbamate]	10 to 100	0.001 to 10
O=C(NC1CCC(F)(F)CC1)N[C@@H]1CCN(c2cn[nH]c(=O)c2Cl)C1 [P-0022, (R)-1-(1-(5-chloro-6-oxo-1,6-dihydropyridazin-4-yl)pyrrolidin-3-yl)-3-(4,4-difluorocyclohexyl)urea]	10 to 100	0.001 to 10
O=C(N[C@@H]1CCN(c2cn[nH]c(=O)c2Cl)C1)OC1CCCC1 [P-0030, cyclopentyl (R)-(1-(5-chloro-6-oxo-1,6-dihydropyridazin-4-yl)pyrrolidin-3-yl)carbamate]	10 to 100	0.001 to 10
O=C(NC1CCCCC1)N[C@@H]1CCN(c2cn[nH]c(=O)c2Cl)C1 [P-0039, (R)-1-(1-(5-chloro-6-oxo-1,6-dihydropyridazin-4-yl)pyrrolidin-3-yl)-3-cyclohexylurea]	0.001 to 10	0.001 to 10
O=C(NC1CCCC1)N[C@@H]1CCN(c2cn[nH]c(=O)c2Cl)C1 [P-0046, (R)-1-(1-(5-chloro-6-oxo-1,6-dihydropyridazin-4-yl)pyrrolidin-3-yl)-3-cyclopentylurea]	0.001 to 10	0.001 to 10
O=C(NC1CCN(C(=O)C(F)(F)F)CC1)N[C@@H]1CCN(c2cn[nH]c(=O)c2Cl)C1 [P-0047, (R)-1-(1-(5-chloro-6-oxo-1,6-dihydropyridazin-4-yl)pyrrolidin-3-yl)-3-(1-(2,2,2-trifluoroacetyl)piperidin-4-yl)urea]	10 to 100	0.001 to 10
CC(C)(C)OC(=O)N1CCC(NC(=O)N[C@@H]2CCN(c3cn[nH]c(=O)c3Cl)C2)CC1 [P-0051, tert-butyl (R)-4-(3-(1-(5-chloro-6-oxo-1,6-dihydropyridazin-4-yl)pyrrolidin-3-yl)ureido)piperidine-1-carboxylate]	10 to 100	0.001 to 10

Continued, values first:

IC50 [1] [µM]	IC50 [2] [µM]	Compound
10 to 100	0.001 to 10	CS(=O)(=O)N1CCC(NC(=O)N[C@@H]2CCN(c3cn[nH]c(=O)c3Cl)C2)C1 (stereo partly drawn) [P-0052, 1-((R)-1-(5-chloro-6-oxo-1,6-dihydropyridazin-4-yl)pyrrolidin-3-yl)-3-(1-(methylsulfonyl)pyrrolidin-3-yl)urea]
10 to 100	0.001 to 10	O=C(NC1CCS(=O)(=O)C1)N[C@@H]1CCN(c2cn[nH]c(=O)c2Cl)C1 (stereo partly drawn) [P-0054, 1-((R)-1-(5-chloro-6-oxo-1,6-dihydropyridazin-4-yl)pyrrolidin-3-yl)-3-(1,1-dioxidotetrahydrothiophen-3-yl)urea]
10 to 100	0.001 to 10	Cc1c(N2CC[C@@H](NC(=O)OC(C)(C)C)C2)cn[nH]c1=O [P-0056, tert-butyl (R)-(1-(5-methyl-6-oxo-1,6-dihydropyridazin-4-yl)pyrrolidin-3-yl)carbamate]
10 to 100	0.001 to 10	Cc1c(N2CC[C@@H](NC(=O)NC3CCCC3)C2)cn[nH]c1=O [P-0057, (R)-1-cyclopentyl-3-(1-(5-methyl-6-oxo-1,6-dihydropyridazin-4-yl)pyrrolidin-3-yl)urea]
10 to 100	0.001 to 10	Cc1c(N2CC[C@@H](NC(=O)NC3CCCC3)C2)cnn(C(=O)NC2CCCC2)c1=O [P-0058, (R)-N-cyclopentyl-4-(3-(3-cyclopentylureido)pyrrolidin-1-yl)-5-methyl-6-oxopyridazine-1(6H)-carboxamide]
10 to 100	0.001 to 10	Cc1c(N2CC[C@@H](NC(=O)NC3CCCCC3)C2)cn[nH]c1=O [P-0059, (R)-1-cyclohexyl-3-(1-(5-methyl-6-oxo-1,6-dihydropyridazin-4-yl)pyrrolidin-3-yl)urea]
10 to 100	0.001 to 10	C[C@H]1CN(c2cn[nH]c(=O)c2Cl)C[C@@H]1NC(=O)NC1CCCCC1 [P-0062, 1-((3R,4S)-1-(5-chloro-6-oxo-1,6-dihydropyridazin-4-yl)-4-methylpyrrolidin-3-yl)-3-cyclohexylurea]
10 to 100	0.001 to 10	C[C@H]1CN(c2cn[nH]c(=O)c2Cl)C[C@@H]1NC(=O)OC1CCCCC1 [P-0063, cyclohexyl ((3R,4S)-1-(5-chloro-6-oxo-1,6-dihydropyridazin-4-yl)-4-methylpyrrolidin-3-yl)carbamate]
10 to 100	0.001 to 10	N#Cc1c(N2CC[C@@H](NC(=O)NC3CCCC3)C2)cn[nH]c1=O [P-0064, (R)-1-(1-(5-cyano-6-oxo-1,6-dihydropyridazin-4-yl)pyrrolidin-3-yl)-3-cyclopentylurea]
0.001 to 10	0.001 to 10	N#Cc1c(N2CC[C@@H](NC(=O)NC3CCCCC3)C2)cn[nH]c1=O [P-0065, (R)-1-(1-(5-cyano-6-oxo-1,6-dihydropyridazin-4-yl)pyrrolidin-3-yl)-3-cyclohexylurea]
10 to 100	0.001 to 10	CN(C(=O)OC1CCCCC1)C1CCN(c2cn[nH]c(=O)c2Cl)C1 (centres unmarked) [P-0068, cyclohexyl (1-(5-chloro-6-oxo-1,6-dihydropyridazin-4-yl)pyrrolidin-3-yl)(methyl)carbamate]
10 to 100	0.001 to 10	N#CC1(NC(=O)OC2CCCCC2)CCN(c2cn[nH]c(=O)c2Cl)C1 (centres unmarked) [P-0074, cyclohexyl (1-(5-chloro-6-oxo-1,6-dihydropyridazin-4-yl)-3-cyanopyrrolidin-3-yl)carbamate]
10 to 100	0.001 to 10	CS(=O)(=O)N1CCC(NC(=O)N[C@@H]2CCN(c3cn[nH]c(=O)c3Cl)C2)CC1 [P-0076, (R)-1-(1-(5-chloro-6-oxo-1,6-dihydropyridazin-4-yl)pyrrolidin-3-yl)-3-(1-(methylsulfonyl)piperidin-4-yl)urea]
0.001 to 10	0.001 to 10	O=C(NC1CCCCC1)OC1CCN(c2cn[nH]c(=O)c2Cl)C1 (centres unmarked) [P-0077, 1-(5-chloro-6-oxo-1,6-dihydropyridazin-4-yl)pyrrolidin-3-yl cyclohexylcarbamate]
